How the values were obtained:
[1] = system: endogenous MuSCs in TA muscle; experiment: Endogenous MuSC BLI in Pax7CreERT2;Rosa26-LSL-Luc mice after cardiotoxin injury; type: in vivo, mouse; conditions: 13 nmol three days post-cardiotoxin, BLI days 3-14
Experimental: Bioluminescence imaging: We performed bioluminescence imaging (BLI) using a Xenogen-100 system, as previously described^1,5,6. Briefly, we anesthetized mice using isofluorane inhalation and administered 120 μL D-luciferin (0.1 mmol kg^−1, reconstituted in PBS; Caliper LifeSciences) by intraperitoneal injection. We acquired BLI using a 60 s exposure at F-stop=1.0 at 5 minutes after luciferin injection. Digital images were recorded and analyzed using Living Image software (Caliper LifeSciences). We analyzed images with a consistent region-of-interest (ROI) placed over each hindlimb to calculate a bioluminescence signal. We calculated a bioluminescence signal in radiance (p s^−1 cm^−2 sr^−1) value of 10^4 to define an engraftment threshold. This radiance threshold of 10^4 is approximately equivalent to the total flux threshold in p/s reported previously. This BLI threshold corresponds to the histological detection of one or more GFP+ myofibers^1,5,6. We performed BLI imaging every week after transplantation. […]
We performed bioluminescence imaging (BLI) using a Xenogen-100 system, as previously described (24, 26, 27, 30). […] Digital images were recorded and analyzed using Living Image software (Caliper LifeSciences). We analyzed images with a consistent region-of-interest (ROI) placed over each hindlimb to calculate a bioluminescence signal. We calculated a bioluminescence signal in radiance (p s^−1 cm^−2 sr^−1) value of 10^4 to define an engraftment threshold. […]
Bioluminescent Imaging: For bioluminescence imaging (BLI), we anesthetized mice using isofluorane inhalation and administered 120 μL D-luciferin (0.1 mmol kg^−1, reconstituted in PBS; Caliper LifeSciences) by intraperitoneal injection. […] Digital images were recorded and analyzed using Living Image software (Caliper LifeSciences). We analyzed images with a consistent region-of-interest (ROI) placed over each hindlimb to calculate a bioluminescence signal. We calculated a bioluminescence signal in radiance (p s^−1 cm^−2 sr^−1) value of 10^4 to define an engraftment threshold. […]

[2] = system: gastrocnemius (GA) muscle; experiment: In vivo muscle force after downhill treadmill run, aged mice, gastrocnemius; set-up: species or system mouse
Experimental: In vivo muscle force measurement: Aged mice (18 mo.) were subjected to downhill treadmill run for 2 consecutive weeks. During week 1, mice ran daily for 5 days and rested on days 6 and 7. […] During week 2, mice were subjected to 5 days treadmill run only. The treadmill run was performed using the Exer3/6 (Columbus Instruments). Mice ran for 10 minutes on the treadmill at 20 degrees downhill, starting at a speed of 7 meters/min. After 3 min, the speed was increased by 1 meter/min to a final speed of 14 meter/min. […] Force measurements were on the GA muscles at week 5 based on a protocol published previously^5. Briefly, for each mouse, an incision was made to expose the GA. We severed the calcaneus bone with intact achilles tendon and attached the tendon-bone complex to a 300C-LR force transducer (Aurora Scientific) with a thin metal hook. The muscles and tendons were kept moist by periodic wetting with saline (0.9% sodium chloride) solution. The lower limb was immobilized below the knee by a metal clamp without compromising the blood supply to the leg. The mouse was under inhaled anesthetic (2% isofluorane) during the entire force measuring procedure and body temperature was maintained by a heat lamp. […] Data were collected with a PCI-6251 acquisition card (National Instruments) and analyzed in Matlab. We calculated specific force values by normalizing the force measurements by the muscle physiological cross-sectional areas (PCSAs), which were similar between the control and the experimental PGE2 treated group (Table 2). PCSA (measured in mm^2) was calculated according to the following equation^12: PCSA (mm^2)=[mass (g)×Cos θ]÷[ρ (g/mm^3)×fiber length (mm)], where θ is pennation angle of the fiber and ρ is muscle density (0.001056 g/mm^3). […]
The muscle force and synchronization pulses were recorded via a PCI-6251 acquisition card (National Instruments) and analyzed using Matlab. FIGS. 5O-5P show the specific muscle force values that were calculated by normalizing the force measurements with the muscle physiological cross-sectional area. […]

[3] = 13 nM dmPGE2 daily for 5 days after downhill treadmill run, force at week 5

SMILES | BLI of endogenous MuSCs after injury and PGE2/dmPGE2 [1] | specific twitch force of gastrocnemius muscles (Example 2) ([2]; treadmill to exhaustion daily for 10 days, 3 nM PGE2 after each run, force 4 weeks after last run) | specific tetanic force of gastrocnemius [2, 3] | specific twitch force of gastrocnemius [2, 3]
CCCCC[C@H](O)/C=C/[C@H]1[C@H](O)CC(=O)[C@@H]1C/C=C\CCCC(=O)O [PGE2, prostaglandin E2] | in agreement with the histological data | increase in specific twitch force | – | –
CCCCC(C)(C)[C@H](O)/C=C/[C@H]1[C@H](O)CC(=O)[C@@H]1C/C=C\CCCC(=O)O [dmPGE2, 16,16-dimethyl prostaglandin E2] | in agreement with the histological data | – | significantly increased | significantly increased
